From patent publication US20050112728A1, “Adenosylmethionine synthetase from streptomyces sp gene sequences coding the same and method for mass production for secondary metabolites including antibiotics thereof” (priority 2001, published 2005)

What was measured:
[1] = tested on: S. peucetius; test: Effect of SAM on doxorubicin production (Exp. 10); format: cell-based; conditions: 1 mM SAM, incubation for 5 days, 30° C.
Experimental: (§1) Each Streptomyces species was incubated in its corresponding culture medium according to Table 1, and treated with 1 mM of SAM (Sigma, USA). After incubation for 5 days, antibiotic concentration was measured in each culture medium.

[2] = tested on: S. cinnamonensis; test: Effect of SAM on monensin production (Exp. 8); format: cell-based; conditions: 1 mM SAM, incubation for 5 days, 30° C.
Experimental: as §1

[3] = tested on: S. griseus; test: Effect of SAM on streptomycin production (Exp. 11); format: cell-based; conditions: 1 mM SAM, incubation for 5 days, 30° C.
Experimental: as §1

[4] = tested on: S. spectabilis; test: Effect of SAM on spectinomycin production (Exp. 9); format: cell-based; conditions: 1 mM SAM, incubation for 5 days, 30° C.
Experimental: as §1

[5] = tested on: S. avermitilis; test: Effect of SAM on avermectin production (Exp. 7); format: cell-based; conditions: 1 mM SAM, incubation for 5 days, 25° C.
Experimental: as §1

[6] = tested on: S. aureofaciens; test: Effect of SAM on chlortetracycline production (Exp. 13); format: cell-based; conditions: 1 mM SAM, incubation for 5 days
Experimental: as §1

[7] = tested on: S. lividans TK23; test: Effect of externally added SAM on productivity of actinorhodin; format: cell-based, Streptomyces lividans; conditions: wild type S. lividans TK23, 1 mM commercially available SAM, FIG. 5
Experimental: Based on the finding that in vivo over-expressed SAM positively affects production yield of actinorhodin in S. lividans TK23, an effect of SAM on productivity of actinorhodin was investigated when commercially available SAM is added directly to culture medium containing S. lividans TK23. As such, wild type S. lividans TK23 was treated with 1 mM of commercially available SAM.

[8] = tested on: S. aureofaciens; test: Effect of SAM on tetracycline production (Exp. 12); format: cell-based; conditions: 1 mM SAM, incubation for 5 days, 28° C.
Experimental: as §1

[9] = Assay for activity of SAM-s (HPLC analysis of reaction products); format: biochemical, Streptomyces spectabilis ATCC 27741; conditions: protein expressed in E. coli, 5 mM ATP, 5 mM methionine, 120 min at 30° C.
Experimental: In order to analyze activity of “SAM-s”, the gene encoding “SAM-s” was expressed in E. coli, and the resulting translational product, “SAM-s”, was then isolated.
To express the gene encoding “SAM-s” in E. coli, the gene was inserted into a pET-21a vector, and then introduced into E. coli BL21. The expressed gene product, “SAM-s” was isolated using a His-Tag purification system. Thereafter, 10 to 50 μl of the enzyme solution containing the protein “SAM-s” was added to a reaction mixture containing 100 mM of Tris-HCl, 200 mM of KCl, 10 mM of MgCl2, 1 mM DTT, 5 mM ATP, and 5 mM methionine, followed by incubation for 120 min at 30° C. After the incubation, reaction products were analyzed through HPLC using Reverse C18 column. In this regard, the column loaded with sample was initially equilibrated with a solution of 0.1 M of NaH2PO4/acetonitrile at a ratio of 98:2 (V/V), pH 2.65. Then, a second solution comprising 0.15 M NaH2PO4/acetonitrile at a ratio of 74:26 (V/V) was applied with continuous mixing with the first solution, forming a concentration gradient.

[10] = tested on: S. lividans TK23; test: Actinorhodin production in S. lividans TK23 transformed with pSAM-s; format: cell-based, Streptomyces lividans; conditions: over-expression of SAM-s, incubation for 7 days at 28° C., FIG. 4
Experimental: The gene encoding “SAM-s” was first inserted into pWHM3, which is a shuttle vector between E. coli and Streptomyces species, giving an expression vector pSAM-s. The plasmid pSAM-s was then introduced into S. lividans TK23. The resulting transformant, Streptomyces lividans TK-23 harboring pSAM-s, was deposited in the Korean Culture Center of Microorganisms with accession No. KCCM 10397 on Jul. 2, 2002. The transformant was incubated in one liter of a medium including 50 g of glycerol, 5 g of glutamic acid, 21 g of morpholinopropane sulfonic acid, 200 mg of MgSO47H2O, 100 mg of CaCl22H2O, 100 mg NaCi, 82 mg KH2PO4, 9 mg FeSO47H2O, and 2 ml of trace element solution, adjusted to pH 6.5. During incubation for 7 days at 28° C., production yield of actinorhodin, which is a main antibiotic produced from S. lividans TK23, was analyzed.

Row | Molecule | Production amount of a treatment group, Doxorubicin [1] | Production amount of a treatment group, Monensin [2] | Production amount of a treatment group, Streptomycin [3] | Production amount of a treatment group, Spectinomycin [4] | Production amount of a treatment group, Avermectin [5] | Production amount of a treatment group, Chlortetracycline [6] | actinorhodin production versus control not treated with SAM [7] | Production amount of a treatment group, Tetracycline [8] | activity to synthesize SAM [9] | production of actinorhodin in the transformant in comparison with wild type S. lividans [10]
1 | C[S+](CC[C@H](N)C(=O)O)C[C@H]1O[C@@H](n2cnc3c(N)ncnc32)[C@H](O)[C@@H]1O (stereo partly drawn) [SAM, S-adenosyl-L-methionine] | 300 µg/mL | 180 µg/mL | 602 µg/mL | 35 µg/mL | 25 µg/mL | 130 µg/mL | produces more actinorhodin | 188 µg/mL |  | 
2 | SAM-s: enzyme catalyzing SAM biosynthesis from Streptomyces spectabilis ATCC 27741, SEQ ID NO. 2 (protein, Steptomyces spectabilis ATCC 27741) MSRRLFTSESVTEGHPDKIADQISDTILDALLREDPTSRVAVETLITTGLVHVAGEVTTKAYAPIAQLVREKILEIGYDSSKKGFDGASCGVSVSIGAQSPDIAQGVDTAYESRVEGDEDELDRQGAGDQGLMFGYACDETPELMPLPIHLAHRLSRRLSEVRKNGTIPYLRPDGKTQVTIEYDGDKAVRLDTVVVSSQHASDIDLESLLAPDIREFVVEPELKALVEDGIKLVVEPELKALVEDGIKLETEGYRLLVNPTGRFEIGGPMGDAGLTGRKIIIDTYGGMSRHGGGAFSGKDPSKVDRSAAYAMRWVAKNVVAAGLASRCEVQVAYAIGKAEPVGLFVETFGTNTIDTDKIEQAISEVFDLRPAAIIRSLDLLRPIYSQTAAYGHFGRSLPEFTWEKTDRVDALRKAAGLES |  |  |  |  |  |  |  |  | has an activity to synthesize SAM | over six times
